Results from US20260184700A1, “PDK1 REGULATORY COMPOUND AND COMPOSITION CONTAINING THE SAME” (PROVIBIO CO., LTD., priority 2024, published 2026).

Columns and labels:
[1] = system: Human Osteosarcoma, Saos-2; experiment: Relative cell viability, CCK-8, Saos-2; type: cell-based
Protocol: Human-derived head and neck cancer cell line Fadu and osteosarcoma cell line Saos-2 were cultured in MEM medium containing 10% FBS, 100 U/mL penicillin, and 100 μg/mL streptomycin.
Following stabilization, the cells were harvested using Trypsin-EDTA treatment, centrifuged at 1,200 rpm for 3 minutes, the supernatant was removed, and the cells were resuspended in the same medium. They were then seeded into a 96-well plate (Costar 96-well cell culture plate, Corning) at 100 μL per well, and the conditions were adjusted as indicated in Table 5.
The cells were cultured in a 5% CO2 incubator at 37° C. for 24 hours, and after stabilization of the cells, each plate was washed with 200 μL of PBS per well and treated with 50 μL of culture medium per well. […]
After that, 10 μL of CCK-8 was added to each well, and the plate was incubated again at 37° C. in a 5% CO2 incubator for 2 hours.
In other words, when the survival rate of untreated cells (DMSO) is set at 100%, the relative cell survival rate in each group treated with the drug at different concentrations is indicated.

MRL/lpr mice = experiment: Lupus animal model (MRL/lpr mice); type: in vivo, mouse; settings: 41-week-old female MRL/lpr mice; GO15F (30 mg/kg), GO48 (1 mg/kg), GO88 (0.5 mg/kg) intraperitoneally once daily
Text: The MRL/MpJ-Faslpr/J (Hereinafter Referred to as “MRL/lpr”) used in this experiment is one of the representative animal models for systemic lupus erythematosus (SLE), known to produce various autoantibodies, including antinuclear antibodies, due to the lpr (lymphoproliferation) gene.
In this invention, the period up to 9 weeks of age was considered the pre-disease stage, and the period after 23 weeks of age was considered the post-disease stage, and efficacy verification experiments using this model were conducted.
MRL/lpr mice were imported from The Jackson Laboratory and acclimatized for one week in an SPF (Specific Pathogen Free) facility maintained at a temperature of 21-24° C., humidity of 40-60%, and a 12-hour light-dark cycle (lights on at 7:00 AM, lights off at 7:00 PM). […]
The serum separated at the time of necropsy of the lupus animal model was analyzed using the ‘IgG (Total) Mouse Uncoated ELISA Kit (Invitrogen, Cat. #88-50400)’ to measure the concentration of total IgG.
Capture antibody (anti-mouse IgG) diluted 1/250 in coating buffer was added to each well of a 96-well plate (Nunc™ MaxiSorp™ ELISA Plates, Uncoated, BioLegend, Cat. #423501) at 100 μl per well, and the plate was incubated at 4° C. for 16 hours.
To investigate the effect of GO15F administration on changes in the ratio of immune cells in the spleen of a lupus animal model, the spleens of mice administered each compound were excised, cells were extracted, and the cells were suspended in MACS buffer (autoMACS Washing Solution, Miltenyi Biotec., Cat. #130-092-987).
For flow cytometry analysis, FACS tubes (5 mL round tubes, Falcon, Cat. #352052) were used. To prevent non-specific binding of antibodies, 1 μg/mL of anti-mouse CD16/CD32 (InVivoPlus anti-mouse CD16/CD32, BioXCell, Cat. #BP0307) for 30 minutes to prevent non-specific binding of the antibody, then centrifuge at 1,500 rpm for 5 minutes and resuspend in 100 μL of MACS buffer.
For B cells, each FACS tube was stained with 1 μg/mL of FITC-conjugated anti-B220 antibody (eBioscience™, Cat. #11-0452-81) at 4° C. for 30 minutes, then washed with 2 mL of MACS buffer.
For T cells, each FACS tube was stained with 1 μg/mL PerCP-Cy5.5-conjugated anti-CD3 (Biolegend, Cat. #100218) at 4° C. for 30 minutes.
For macrophages, each FACS tube was stained with 1 μg/mL of PE-conjugated anti-CD11b antibody (Biolegend, Cat. #101207) and PerCP-Cy5.5-conjugated anti-F4/80 (Biolegend, Cat. #123128) and incubated at 4° C. for 30 minutes. The tubes were then washed with 2 mL of MACS buffer.
To investigate the effects of compound GO15F according to the present invention on systemic immune responses in a lupus animal model, gene expression analysis of cytokines in kidney tissue was performed as described in (1).
Each kidney tissue was used to isolate total RNA using TRIzol™ (Invitrozen, Cat. #15596018). RNA from each mouse was quantified at 1 μg using a micro-quantitative spectrophotometer (ThermoFisher Scientific, ND2000) and cDNA was synthesized.
The synthesized cDNA from each mouse was quantified to a concentration of 50 ng using a micro-quantitative spectrophotometer, and qPCR was performed for the cytokines ‘IL-2, IL-6, IL-10, IL-17, TNF-α, IFN-γ’ using a SYBR green probe (CFX96, BIO-RAD).
To investigate the effects of drug administration on renal tissue in MRL/lpr mice, the tissue was fixed in 10% neutral buffered formalin at room temperature, followed by stepwise ethanol penetration for dehydration. The tissue was then embedded in xylene and paraffin.
The blocked tissues were sectioned into 4 μm thick slices using a microtome, followed by deparaffinization, hydration, and staining.
Hematoxylin & Eosin staining, PAS staining, and Masson trichrome staining were performed for pathological evaluation of the tissues. […]

| Compound | Relative cell viability (%) ([1]; Saos-2, 10 μM, 48 hours) | Relative cell viability (%) ([1]; Saos-2, 30 μM, 48 hours) | Relative cell viability (%) ([1]; Saos-2, 50 μM, 48 hours) | Relative cell viability (%) ([1]; Saos-2, 48 hours) | hair growth on the facial region (MRL/lpr mice) |
| --- | --- | --- | --- | --- | --- |
| CC1(C)CN(CCCCCCCCCCCCC(=O)Nc2nc(N)c3[nH]cnc3n2)CCO1 [Compound 11, 12-[4-(2,2-dimethylmorpholin-4-yl)]dodecyl-N-(6-aminopurine-2-yl)carboxamide] | 24.98% | 16.00% | 36.73% | 36.73% | – |
| Nc1ncccc1C(=O)NCCCCCCCCCCCCN1CCNCC1 [Compound 14, 2-Amino-N-(12-(piperazin-1-yl)dodecyl)nicotinamide] | – | – | – | – | hair growth was confirmed |
